Patent EP0338042B1, “COMPOSITION AND METHOD FOR TREATING HEPATITIS VIRUS INFECTIONS USING 1-(2'-DEOXY-2'-FLUORO-BETA-D-ARABINOFURANOSYL)-5-ETHYLURACIL” (priority 1987, dated 1989)
pEC50: −log10 of the molar value. “And” between values parts separate entries of the source, which are not always exact repeats. Equal values may be shown once. Read-outs that look alike come from different tables or passages of the source. Marks after values point to notes of the source that are not given here.

Experiments:
HL-60 CELLS MIT[…] = target: T1, HL-60 CELLS MIT[…] (Homo sapiens, UniProt O00142); assay: Phosphorylation by thymidine kinase relative to thymidine; format: biochemical; conditions: thymidine at 400 µM
T1 construct: cytosol and mitochondrial TK's derived from the HL-60 human cell line; endogenous in cells; host or cells: HL-60
T1 sequence (O00142 34-265): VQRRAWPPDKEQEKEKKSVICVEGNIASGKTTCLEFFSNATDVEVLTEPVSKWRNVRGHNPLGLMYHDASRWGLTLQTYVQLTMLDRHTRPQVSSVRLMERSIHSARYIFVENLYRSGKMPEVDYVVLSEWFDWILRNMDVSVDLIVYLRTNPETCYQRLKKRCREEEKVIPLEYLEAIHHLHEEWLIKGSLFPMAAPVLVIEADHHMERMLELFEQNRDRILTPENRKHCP
Description: (§1) It is generally accepted that the selective anti-herpes activity of 2′-fluoro-arabinosylpyrimidine nucleosides is associated in large measure with their ability to be recognized as good substrates for HSV-specified thymidine kinase (TK), but not by the host TK (14, 15). […] By contrast, FEAU is a very poor substrate for the host HL-60 derived TKs (13). […] Their data also indicate that, in uninfected Vero cells, FEAU would be phosphorylated at a very low rate in the presence of thymidine.

HSV-1 (STRAIN KOS) TK = HSV-1 (STRAIN KOS) TK (Human herpesvirus 1, UniProt P17402); assay: as above; format: biochemical; conditions: thymidine at 400 µM
HSV-1 (STRAIN KOS) TK, sequence (P17402 whole entry, looked up): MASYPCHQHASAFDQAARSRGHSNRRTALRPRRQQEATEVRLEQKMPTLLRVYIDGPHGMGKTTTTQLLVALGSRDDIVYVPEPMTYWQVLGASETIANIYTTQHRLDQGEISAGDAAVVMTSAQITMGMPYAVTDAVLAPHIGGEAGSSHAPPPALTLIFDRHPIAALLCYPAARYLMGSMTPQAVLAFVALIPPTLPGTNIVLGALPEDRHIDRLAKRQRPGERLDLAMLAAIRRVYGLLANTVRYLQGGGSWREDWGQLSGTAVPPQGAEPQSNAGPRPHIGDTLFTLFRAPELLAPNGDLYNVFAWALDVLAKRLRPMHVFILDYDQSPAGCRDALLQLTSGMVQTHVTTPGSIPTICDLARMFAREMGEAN
Description: as §1

HSV-2 (STRAIN 333) TK = HSV-2 (STRAIN 333) TK (Human herpesvirus 2, UniProt P04407); assay: as above; format: biochemical; conditions: thymidine at 400 µM
HSV-2 (STRAIN 333) TK, sequence (P04407 whole entry): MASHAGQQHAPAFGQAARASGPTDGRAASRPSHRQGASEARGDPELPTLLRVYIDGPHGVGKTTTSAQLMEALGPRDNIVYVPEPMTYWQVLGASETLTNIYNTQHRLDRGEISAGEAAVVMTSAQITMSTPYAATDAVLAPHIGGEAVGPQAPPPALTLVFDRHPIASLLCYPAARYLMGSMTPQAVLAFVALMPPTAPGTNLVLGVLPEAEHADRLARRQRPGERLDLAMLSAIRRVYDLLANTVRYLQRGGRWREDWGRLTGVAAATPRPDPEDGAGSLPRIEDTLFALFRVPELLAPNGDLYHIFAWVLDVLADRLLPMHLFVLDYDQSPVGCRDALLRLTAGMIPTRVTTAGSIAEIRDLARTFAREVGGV
Description: as §1

RAT BONE MARROW CELLS = assay: Inhibition of thymidine incorporation into DNA; format: cell-based; conditions: Bone marrow cell, read-out: ED50 FOR […] INC[…] DNA, RAT BONE MARROW CELLS, read-out: ED50 FOR INHIBITING THYMIDINE INCORPORATION INTO DNA, RAT BONE MARROW CELLS
[1] = cited from earlier work
[2] = system: woodchuck hepatitis virus (WHV); assay: Inhibition of WHV replication in chronically infected woodchucks (DNA polymerase activity); format: in vivo, woodchucks (Marmota monax); conditions: for WHV replication by day 60: all 5 animals
Method: All woodchucks bearing chronic active hepatitis virus (Hantz, supra) were administered FMAU twice daily by interperitoneal injections of FMAU in the following dosages:
Studies were then undertaken to evaluate FMAU and FEAU in this animal model using woodchucks naturally chronically-infected with woodchuck hepatitis virus (24). It was assumed that these nucleosides would be anabolized to their nucleoside triphosphates within the animal. WHV replication was measured periodically by the endogenous DNA polymerase activity and by the detection of WHV DNA by the dot-blot hybridization assay. Three different dosages of FMAU and FEAU were investigated. FMAU at 2 mg/kg/day x 5, (given intraperitoneally TABLE VIII
In accordance with the procedures of Example 2, the FEAU inhibition of WHV replication was further studied at different doses administered orally to woodchucks through stomach tubes. Two groups of woodchucks with different initial WHV replication values were examined.
Seven woodchucks with high WHV replication were tested. High replication was defined as over 1000 counts per minute of DNA polymerase activity, and the mean replication was 1600.
Seven woodchucks with low WHV replication were tested. Low replication was defined as lower than 1000 counts per minute of DNA polymerase activity, and the mean replication was 600-800.

[3] = system: simian varicella virus (SVV); assay: Simian varicella virus infection in the African green monkey; conditions: for VIREMIA - MEAN PFU ON DAYS P.I. 3: IV twice daily for ten days from 48 hours after inoculation; for VIREMIA - MEAN PFU ON DAYS P.I. 5 / VIREMIA - MEAN PFU ON DAYS P.I. 7 / VIREMIA - MEAN PFU ON DAYS P.I. 9 / VIREMIA - MEAN PFU ON DAYS P.I. 11: IV twice daily for ten days
HSV-2 (STRAIN G) = conditions: cited from earlier work; for MDD: calculated on day 21; for %WT GAIN ON DAY 7 / %WT GAIN ON DAY 14 / %WT GAIN ON DAY 21 / %WT GAIN ON DAY 30: compared to day 1
HSV-1(F) = conditions: plaque reduction in Vero cells, cited from earlier work
[4] = system: HSV-1 INFECTED VERO CELLS; assay: Incorporation of 2-14C-labeled nucleoside into DNA of cells; format: cell-based, African green monkey; conditions: [2-14C] labeled nucleoside
Description: (§2) There was no detectable incorporation of FEAU radioactivity into the DNA of either L-1210 or Vero cell lines, but substantial amounts of FMAU radioactivity were incorporated into the DNA of both cell lines. When HSV-1 infected Vero cells were exposed to ¹⁴C-labeled FEAU and FMAU, both nucleosides incorporated into the DNA of these virus-infected cells.

VERO = assay: as above; format: cell-based, African green monkey; conditions: FEAU also not detectable at 100 μM
Description: as §2

[5] = 0.2 mg/kg/day, FMAU x 5, FEAU x 10
[6] = FEAU 3 MG/KG/DAY, one line per monkey
[7] = FEAU 10 MG/KG/DAY, one line per monkey
[8] = FEAU 30 MG/KG/DAY, one line per monkey
[9] = FEAU 10 MG/KG/DAY, single surviving animal only

CCc1cn([C@@H]2O[C@H](CO)[C@@H](O)[C@@H]2F)c(=O)[nH]c1=O [FEAU, 1-(2'-deoxy-2'-fluoro-beta-D-arabino-furanosyl)-5-ethyl-uracil]
PERCENTAGE RATES OF PHOSPHORYLATION (RELATIVE TO THYMIDINE), HL-60 CELLS MITOCHONDRIAL TK (HL-60 CELLS MIT[…]): 219.0% | PERCENTAGE RATES OF PHOSPHORYLATION (RELATIVE TO THYMIDINE), HSV-1 (STRAIN KOS) TK (HSV-1 (STRAIN KOS) TK): 82.7% and 42.0% | PERCENTAGE RATES OF PHOSPHORYLATION (RELATIVE TO THYMIDINE), HSV-2 (STRAIN 333) TK (HSV-2 (STRAIN 333) TK): 203.2% and 146.6% | pEC50 (RAT BONE MARROW CELLS): 2.43 | toxicity ([1]; in vivo experiments with mice): relatively nontoxic | toxicity ([1]; normal (uninfected) mice, 800 mg/kg/day given twice daily for 4 days): non-toxic | anti-WHV effect ([2]; 0.04 mg/kg/day x 10): somewhat diminished anti-WHV effect | suppression of viral replication [2, 5]: equally effective | toxicity [2, 5]: nontoxic | inhibitory activity after cessation of drug administration ([2]; 0.2 or 2 mg doses, slow return to pretreatment levels): remained significant over a six-week period | WHV replication by the twenty-third day ([2]; high replication woodchucks (>1000 cpm), oral 0.2 mg/kg/day, four of five still above normal level (50 cpm)): lowered replication values | WHV replication by day 60 ([2]; high replication woodchucks, oral 0.2 mg/kg/day, raised to 1 mg/kg/day on day 24 in four of five): completely inhibited | WHV replication ([2]; i.p. 2 mg/kg/day x 10): almost immediate suppression | weight loss ([2]; in vivo): about 10% | toxicity ([2]; in vivo, ip, 2 mg/kg/day): did not exhibit any toxic effects | toxicity ([2]; in vivo, po, 0.2 mg/kg/day): without any observed toxicity | WHV replication by the twenty-third day ([2]; low replication woodchucks (<1000 cpm), oral 0.04 mg/kg/day, two of five still above normal level): lowered replication values | WHV replication by day 60 ([2]; low replication woodchucks, oral 0.04 mg/kg/day, raised to 0.2 mg/kg/day on day 24 in two of five): completely inhibited | WHV replication ([2]; oral administration, 0.2 mg/kg/day x 10, one woodchuck, preliminary): significant suppression | minimal effective dose ([3]; Cercopithecine alphaherpesvirus 9, in Primates): ~1 mg/kg/day | RASH -SEVERITY ON DAYS P.I. 9 ([3]; FEAU 1 MG/KG/DAY by stomach tube twice daily for ten days, one line per monkey): ± | VIREMIA - MEAN PFU ON DAYS P.I. 3 [3, 6]: 1 PFU and 0 PFU | VIREMIA - MEAN PFU ON DAYS P.I. 5 [3, 6]: 8 PFU and 1 PFU | VIREMIA - MEAN PFU ON DAYS P.I. 7 [3, 6]: 0 PFU and 1 PFU | VIREMIA - MEAN PFU ON DAYS P.I. 9 [3, 6]: 0 PFU | VIREMIA - MEAN PFU ON DAYS P.I. 11 [3, 6]: 0 PFU | VIREMIA - MEAN PFU ON DAYS P.I. 3 [3, 7]: 1 PFU and 0 PFU | VIREMIA - MEAN PFU ON DAYS P.I. 5 [3, 7]: 14 PFU and 1 PFU | VIREMIA - MEAN PFU ON DAYS P.I. 7 [3, 7]: 5 PFU and 1 PFU | VIREMIA - MEAN PFU ON DAYS P.I. 9 [3, 7]: 0 PFU | VIREMIA - MEAN PFU ON DAYS P.I. 11 [3, 7]: 0 PFU | VIREMIA - MEAN PFU ON DAYS P.I. 3 [3, 8]: 1 PFU and 2 PFU | VIREMIA - MEAN PFU ON DAYS P.I. 5 [3, 8]: 0 PFU | VIREMIA - MEAN PFU ON DAYS P.I. 7 [3, 8]: 0 PFU | VIREMIA - MEAN PFU ON DAYS P.I. 9 [3, 8]: 0 PFU | VIREMIA - MEAN PFU ON DAYS P.I. 11 [3, 8]: 0 PFU | rash ([3]; intravenous route, 30, 10 and 3 mg/kg/day x 10): none of the FEAU-treated monkeys developed rash | hematology tests and serum chemistries ([3]; intravenous route, 30, 10 and 3 mg/kg/day x 10, all treated monkeys): normal | toxicity ([3]; intravenous route, three dose levels up to 30 mg/kg/day x 10): no apparent toxicity | rash ([3]; lower dose of 1 mg/kg/day): prevented development of rash | viremia ([3]; lower dose of 1 mg/kg/day): did not reduce viremia in two of three monkeys | viremia ([3]; oral administration, 10, 3 or 1 mg/kg/day x 10): reduced viremia significantly | toxicity ([3]; oral route, 10 mg/kg/day x 10): without any observed toxicity | MDD (HSV-2 (STRAIN G); FEAU 10 MG/KG/DAY, twice a day for 4 days from 5 hr after inoculation): 9.4 | % SURVIVORS (HSV-2 (STRAIN G); FEAU 10 MG/KG/DAY, twice a day for 4 days): 8% | %WT GAIN ON DAY 7 (HSV-2 (STRAIN G); FEAU 10 MG/KG/DAY): -7% | %WT GAIN ON DAY 14 (HSV-2 (STRAIN G); [9]): -13^+ % | %WT GAIN ON DAY 21 (HSV-2 (STRAIN G); [9]): 31^+ % | %WT GAIN ON DAY 30 (HSV-2 (STRAIN G); [9]): 36^+ % | MDD (HSV-2 (STRAIN G); FEAU 50 MG/KG/DAY, twice a day for 4 days from 5 hr after inoculation): 11.8 | % SURVIVORS (HSV-2 (STRAIN G); FEAU 50 MG/KG/DAY, twice a day for 4 days): 25% | %WT GAIN ON DAY 7 (HSV-2 (STRAIN G); FEAU 50 MG/KG/DAY): 3% | %WT GAIN ON DAY 14 (HSV-2 (STRAIN G); FEAU 50 MG/KG/DAY): -10% | %WT GAIN ON DAY 21 (HSV-2 (STRAIN G); FEAU 50 MG/KG/DAY): 16% | %WT GAIN ON DAY 30 (HSV-2 (STRAIN G); FEAU 50 MG/KG/DAY): 25% | MDD (HSV-2 (STRAIN G); FEAU 100 MG/KG/DAY, twice a day for 4 days from 5 hr after inoculation): 11.0 | % SURVIVORS (HSV-2 (STRAIN G); FEAU 100 MG/KG/DAY, twice a day for 4 days): 72% | %WT GAIN ON DAY 7 (HSV-2 (STRAIN G); FEAU 100 MG/KG/DAY): 2% | %WT GAIN ON DAY 14 (HSV-2 (STRAIN G); FEAU 100 MG/KG/DAY): 7% | %WT GAIN ON DAY 21 (HSV-2 (STRAIN G); FEAU 100 MG/KG/DAY): 13% | %WT GAIN ON DAY 30 (HSV-2 (STRAIN G); FEAU 100 MG/KG/DAY): 13% | MDD (HSV-2 (STRAIN G); FEAU 200 MG/KG/DAY, twice a day for 4 days, parentheses: death of a single animal): (14)^# | % SURVIVORS (HSV-2 (STRAIN G); FEAU 200 MG/KG/DAY, twice a day for 4 days): 93% | %WT GAIN ON DAY 7 (HSV-2 (STRAIN G); FEAU 200 MG/KG/DAY): 0% | %WT GAIN ON DAY 14 (HSV-2 (STRAIN G); FEAU 200 MG/KG/DAY): 1% | %WT GAIN ON DAY 21 (HSV-2 (STRAIN G); FEAU 200 MG/KG/DAY): 9% | %WT GAIN ON DAY 30 (HSV-2 (STRAIN G); FEAU 200 MG/KG/DAY): 13% | toxicity (HSV-2 (STRAIN G); HSV-2 infected mice, doses of 100-200 mg/kg/day): no toxicity was observed | pEC50 (HSV-1(F); read-out: HSV-1(F) ED₅₀): 7.62 | EC90 (HSV-1(F); read-out: HSV-1(F) ED₉₀): 0.26 µM | INCORPORATION INTO DNA AT 10μM, HSV-1 INFECTED VERO CELLS [4]: 0.48 p MOLE/10^6 CELLS/HR | INCORPORATION INTO DNA AT 10μM, VERO (VERO): NOT DETECTABLE*
